In patent publication US7816358B2, “Pharmaceutical formulations comprising N,N′-disubstituted piperazine compounds” (Gruenenthal GmbH, priority 2001, dated 2010):

Tested on: gabapentin binding site
Experiment: Gabapentin binding assay: displacement of [3H]-gabapentin from its binding site
Conditions: compound 10 μM in the test batch; [3H]-gabapentin 10 nM; homogenate 0.6 mg/ml protein; 40 minutes at room temperature
Procedure: In the binding assay, the binding and affinities of the compounds according to the invention to the binding site—which is also hitherto still unknown in science—of gabapentin is investigated. The affinity of the compounds was measured via the displacement of gabapentin from its binding site.
The procedure for the measurement was as follows: Homogenate aliquots were thawed and diluted 20-fold with buffer 1, resuspended and then centrifuged at 110,000×g for 20 minutes. The pellet was resuspended with buffer 2 (10 mM HEPES, 0.05% NaN3, 1 tablet of Complete (Roche Diagnostics) per 100 ml, 0.004% Structol, pH 7.4) and adjusted to a protein concentration of 0.6 mg/ml. 225 μl of homogenate, 20 μl of [^3H]-gabapentin (76 Ci/mmol) in buffer 2, corresponding to a concentration of 10 nM in the test batch, and 5 μl of a compound according to the invention (dissolved in 25% DMSO in water) with a concentration of 10 μM in the test batch were incubated on a shaking machine for 40 minutes at room temperature in 96-well microtiter plates (polypropylene, Costar) and the incubated mixture was then filtered with suction on 96-well Unifilter plates with GF/B filters (Whatman) using a harvester (Robotic Harvester 9600, Brandel). The filter plates were preswollen for 40 minutes in buffer 3 (50 mM Tris, 0.5% PEI, pH 7.4) before the filtering step. The filter plates were washed three times with wash buffer (0.1 M NaCl with 0.05 NaN3) after the filtering step in order to remove non-bound radioligand, and then dried in a drying cabinet at 55° C. After a cooling phase of 15 minutes, 35 μl of scintillator (Ultima Gold MV, Packard) were added per well and the radioactivity on the filters was then determined in a β-counter (Trilux Microbeta, Wallac).

| SMILES | Gabapentin [%] inhibition [%] |
| --- | --- |
| CN1CCN(CC2CCCCCC2(O)Cc2cccc(F)c2)CC1 (stereo not drawn) [1-(3-Fluoro-benzyl)-2-(4-methyl-piperazin-1-ylmethyl)-cycloheptanol] | 44 |
| CN1CCN(CC2CCCCCC2(O)Cc2c(F)cccc2Cl)CC1 (stereo not drawn) [1-(2-Chloro-6-fluoro-benzyl)-2-(4-methyl-piperzazin-1-ylmethyl)-cycloheptanol] | 82 |
| C=CC1(O)CCCCCCCCCCC1CN1CCN(C)CC1 (stereo not drawn) [2-(4-Methyl-piperazin-1-ylmethyl)-1-vinyl-cyclododecanol] | 49 |
| CN1CCN(CC2CCCCCCCCCCC2(O)Cc2ccccc2)CC1 (stereo not drawn) [1-Benzyl-2-(4-methyl-piperazin-1-ylmethyl)-cyclododecanol] | 56 |
| CN1CCN(CC2CCCCCC2(O)Cc2ccccc2Cl)CC1 (stereo not drawn) [1-(2-Chloro-benzyl)-2-(4-methyl-piperazin-1-ylmethyl)-cycloheptanol] | 74 |
| CN1CCN(CC2CCCCCCCCCCC2(O)Cc2cccc(F)c2)CC1 (stereo not drawn) [1-(3-Fluoro-benzyl)-2-(4-methyl-piperazin-1-ylmeethyl)-cyclododecanol] | 45 |
| CN1CCN(CC2CCCCCCC2(O)Cc2ccc(Cl)cc2Cl)CC1 (stereo not drawn) [1-(2,4-Dichloro-benzyl)-2-(4-methyl-piperazin-1-ylmethyl)-cyclooctanol] | 48 |
| CN1CCN(CC2CCCCCCC2(O)Cc2ccccc2Cl)CC1 (stereo not drawn) [1-(2-Chloro-benzyl)-2-(4-methyl-piperazin-1-ylmethyl)-cyclooctanol] | 61 |
| CN1CCN(CC2CCCCCCC2(O)Cc2c(F)cccc2Cl)CC1 (stereo not drawn) [1-(2-Chloro-6-fluoro-benzyl)-2-(4-methyl-piperazin-1-ylmethyl)-cyclooctanol] | 60 |
| CN1CCN(CC2CCCCCCC2(O)Cc2ccc(F)cc2)CC1 (stereo not drawn) [1-(4-Fluoro-benzyl)-2-(4-methyl-piperazin-1-ylmethyl)-cyclooctanol] | 39 |
| CN1CCN(CC2CCCCCC2(O)Cc2ccc(Cl)cc2Cl)CC1 (stereo not drawn) [1-(2,4-Dichloro-benzyl)-2-(4-methyl-piperazin-1-ylmethyl)-cycloheptanol] | 48 |
| CN1CCN(CC2CCCCCCC2(O)Cc2cccc(F)c2)CC1 (stereo not drawn) [1-(3-Fluoro-benzyl)-2-(4-methyl-piperazin-1-ylmethyl)-cyclooctanol] | 42 |
